In US11274079B2 (DALIAN INSTITUTE OF CHEMICAL PHYSICS, CHINESE ACADEMY OF …, priority 2018, dated 2022) one finds IC50 data, which are given here for 16 molecules.

In assay [1] the target is T1, M1 receptor (Homo sapiens, UniProt P11229).
T1 construct: expressed in transfected cells; host or cells: CHO-K1
T1 sequence (P11229 1-460): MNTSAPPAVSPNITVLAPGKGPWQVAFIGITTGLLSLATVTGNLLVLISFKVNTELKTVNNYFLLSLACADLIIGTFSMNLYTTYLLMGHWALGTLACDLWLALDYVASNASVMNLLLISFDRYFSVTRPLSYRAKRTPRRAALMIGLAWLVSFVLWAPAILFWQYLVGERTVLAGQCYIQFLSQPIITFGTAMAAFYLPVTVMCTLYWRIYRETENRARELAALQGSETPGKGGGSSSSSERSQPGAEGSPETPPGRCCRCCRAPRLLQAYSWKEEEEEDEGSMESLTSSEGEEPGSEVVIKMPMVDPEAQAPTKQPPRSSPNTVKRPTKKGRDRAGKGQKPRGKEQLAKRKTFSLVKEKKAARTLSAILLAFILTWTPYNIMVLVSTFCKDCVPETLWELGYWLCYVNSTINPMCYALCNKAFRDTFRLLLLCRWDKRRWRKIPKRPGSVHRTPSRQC
As to the kind of experiment: DMR assay, antagonism of acetylcholine in CHO-K1 cells stably transfecting the M1 receptor. The following applies: CHO-K1-M1 cells, DMR, acetylcholine 1 μM, 1 h pretreatment, time point 5 min. Type of assay: cell-based. How it is done: (§1) The present invention relates to the antagonistic activity of the compound against the muscarinic receptor, which is primarily assessed by a cell-level dynamic mass redistribution (DMR) assay method. All tests are carried out on Epic platform, wherein the target model of the muscarinic receptor M1 is the CHO-K1 ceil model stably transfecting the M1 receptor, the target model of M3 is the HT-29 cell model endogenously highly expressing the M3 receptor, and the selected probe molecule is acetylcholine. Tire probe molecule acetylcholine is dissolved in water, while all other compounds are dissolved in DMSO.
The inoculated cell plate is placed in a cell incubator for culture for 12 h until the cell growth and fusion degree reaches about 95%, and the activity assay is carried out. The culture medium is sucked from the cultured ceils, the buffer salt specified by the test is added with a volume of 30 μL per orifice and is stabilized for 1 h. After the baseline is stable, a 2-min baseline is established, and different concentrations of compounds to be tested are added to test the cultured cells for 1 h. After the cells are pretreated with the compounds to be tested for 1 h, the 2-min baseline is re-established, and acetylcholine having a concentration of 1 μM is added to test the cultured cells for 1 h.

Assay [2] deals with T2, M3 receptor (Homo sapiens, UniProt P20309).
T2 construct: HT-29 cell model endogenously highly expressing the M3 receptor; endogenous in cells; host or cells: HT-29
T2 sequence (P20309 whole entry): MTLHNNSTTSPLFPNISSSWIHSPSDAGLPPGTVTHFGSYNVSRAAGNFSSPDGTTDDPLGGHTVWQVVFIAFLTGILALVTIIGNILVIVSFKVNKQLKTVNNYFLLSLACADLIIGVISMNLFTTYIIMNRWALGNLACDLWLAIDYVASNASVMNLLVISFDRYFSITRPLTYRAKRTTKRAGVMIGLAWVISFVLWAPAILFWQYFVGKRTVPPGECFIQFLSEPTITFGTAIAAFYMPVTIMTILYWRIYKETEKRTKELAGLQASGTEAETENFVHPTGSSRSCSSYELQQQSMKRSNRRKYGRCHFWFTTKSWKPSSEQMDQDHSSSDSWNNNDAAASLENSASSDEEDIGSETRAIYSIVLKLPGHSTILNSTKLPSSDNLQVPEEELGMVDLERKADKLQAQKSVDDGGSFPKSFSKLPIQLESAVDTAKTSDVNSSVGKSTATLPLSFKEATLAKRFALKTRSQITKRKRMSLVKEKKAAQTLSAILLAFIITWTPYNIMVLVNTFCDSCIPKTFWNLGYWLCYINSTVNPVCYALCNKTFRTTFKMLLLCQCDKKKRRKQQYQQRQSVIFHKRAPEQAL
As to the kind of experiment: DMR assay, antagonism of acetylcholine in HT-29 cells endogenously expressing the M3 receptor. Type of assay: cell-based. The following applies: HT-29 cells, DMR, acetylcholine 16 μM, 1 h pretreatment, time point 30 min. How it is done: as §1
The inoculated cell plate is placed in a cell incubator for culture for 20 h until the cell growth and fusion degree reaches about 95%, and the activity assay is carried out. The culture medium is sucked from the cultured cells, the buffer salt specified by the test is added with a volume of 30 μL per orifice and is stabilized for 1 h. After the baseline is stable, a 2-min baseline is established, and different concentrations of compounds to be tested are added to test the cultured cells for 1 h.

Usually IC50 stands for the concentration that inhibits the measured activity by half.

As for `COc1ccc(O)c(C(CC2CCCC[N+]2(C)C)c2ccccc2)c1` (centres unmarked) [I-9, 2-[2-(2-hydroxy-5-methoxyphenyl)-phenethyl]-N,N-dimethylpiperidine Bromide], the IC50 in assay [1] came out at 0.1 ± 0.0102 µM; in assay [2], 0.16 ± 0.0203 µM.

Take `Cc1ccc(O)c(C(CC2CCCC[N+]2(C)C)c2ccc(Cl)cc2)c1` (centres unmarked) [I-14, 2-[2-(4-chlorophenyl)-2-(2-hydroxy-5-methylphenyl)-ethyl]-N,N-dimethylpiperidine Bromide]: the IC50 amounted to 0.0792 ± 0.0369 µM in assay [1] and 0.0872 ± 0.0365 µM in assay [2].

In the case of `Cc1ccc(C(CC2CCCC[N+]2(C)C)c2cc(C)ccc2O)cc1` (centres unmarked) [I-15, 2-[2-(4-tolyl)-2-(2-hydroxy-5-methyl-phenyl)-ethyl]-N,N-dimethylpiperidine Bromide], the IC50 in assay [1] came out at 0.0483 ± 0.011 µM; in assay [2], 0.078 ± 0.031 µM.

In the case of `Cc1ccc(O)c(C(CC2CCC[N+]2(C)C)c2ccccc2)c1` (centres unmarked) [I-19, 2-[2-(2-hydroxy-5-methyl-phenyl)-phenethyl]-N,N-dimethylpyrrolidine Bromide], the figures for the concentration for half-maximal inhibition (IC50) in assay [1] and in assay [2] were 0.041 ± 0.0092 µM and 0.0299 ± 0.0047 µM, respectively.

For `CCc1ccc(O)c(C(CC2CCC[N+]2(C)C)c2ccccc2)c1` (centres unmarked) [I-20, 2-[2-(2-hydroxy-5-ethyl-phenyl)-phenethyl]-N,N-dimethylpyrrolidine Bromide], the IC50 in assay [1] amounted to 0.089 ± 0.0073 µM; in assay [2], 0.0532 ± 0.0093 µM.

As for `Cc1ccc(O)c(C(CC2CCCC[N+]2(C)C)c2ccsc2)c1` (centres unmarked) [I-22, 2-[2-(3-thienyl)-2-(2-hydroxy-5-methyl-phenyl)-ethyl]-N,N-dimethylpiperidine Bromide], the IC50 in assay [1] worked out at 0.0257 ± 0.0008 µM; in assay [2], 0.0107 ± 0.0016 µM.

As for `Cc1ccc(OC(=O)C(C)C)c(C(CC2CCCC[N+]2(C)C)c2ccccc2)c1` (centres unmarked) [I-23, 2-[2-(2-isobutyryl estergroup-5-methyl-phenyl)-phenethyl]-N,N-dimethylpiperidine Bromide], the IC50 in assay [1] came out at 2.53 ± 0.48 µM; in assay [2] it was 0.79 ± 0.075 µM.

On to `Cc1ccc(OC(=O)c2ccccc2)c(C(CC2CCCC[N+]2(C)C)c2ccccc2)c1` (centres unmarked) [I-25, 2-[2-(2-benzoate Group-5-methyl-phenyl)-phenethyl]-N,N-dimethylpiperidine Bromide], for which the IC50 is 0.997 ± 0.06 µM in assay [1] and 2.31 ± 0.6 µM in assay [2].

Consider `CN1CCCCC1CC(c1ccccc1)c1ccccc1` (centres unmarked) [II-1, 2-(2,2-Diphenylethyl)-N-Methylpiperidine], for which the IC50 in assay [1] was 3.13 ± 0.24 µM; in assay [2], > 10 µM.

Turning to `CCCc1ccc(O)c(C(CC2CCCCN2C)c2ccccc2)c1` (centres unmarked) [II-6], the IC50 in assay [1] is 0.0732 ± 0.0125 µM; in assay [2] it was 0.11 ± 0.0139 µM.

Consider `Cc1ccc(O)c(C(CC2CCCCN2C)c2ccccc2F)c1` (centres unmarked) [II-7, 2-[2-(2-fluorophenyl)-2-(2-hydroxy-5-methyl-phenyl)ethyl]-N-methylpiperidine], for which the IC50 in assay [1] amounted to 0.23 ± 0.01 µM; in assay [2] it was 0.21 ± 0.03 µM.

Take `COc1ccc(O)c(C(CC2CCCCN2C)c2ccccc2)c1` (centres unmarked) [II-9, 2-[2-(2-hydroxy-5-methoxy-phenyl)-phenethyl]-N-methylpiperidine]: the IC50 in assay [1] is 0.0732 ± 0.0125 µM; in assay [2] it was 0.32 ± 0.0414 µM.

On to `CN1CCCCC1CC(c1ccccc1)c1cc(O)ccc1O` (centres unmarked) [II-11, 2-[2-(2,5-dihydroxy-phenyl)-phenethyl]-N-methylpiperidine], for which the IC50 is 0.19 ± 0.0358 µM in assay [1] and 0.37 ± 0.159 µM in assay [2].

`Cc1ccc(O)c(C(CC2CCCCN2C)c2ccc(Cl)cc2)c1` (centres unmarked) [II-14, 2-[2-(4-chlorophenyl)-2-(2-hydroxy-5-methylphenyl)ethyl]-N-methylpiperidine]: the 50% inhibitory concentration (IC50) in assay [1] amounted to 0.129 ± 0.0298 µM; in assay [2], 0.149 ± 0.0395 µM.

Turning to `Cc1ccc(C(CC2CCCCN2C)c2cc(C)ccc2O)cc1` (centres unmarked) [II-15, 2-[2-(4-tolyl)-2-(2-hydroxy-5-methyl-phenyl)-ethyl]-N-methylpiperidine], the IC50 in assay [1] was determined as 0.0651 ± 0.0117 µM; in assay [2] it was 0.112 ± 0.02 µM.

On to `COc1ccccc1C(CC1CCCCN1C)c1ccccc1` (centres unmarked) [II-17], for which the IC50 in assay [1] is 6.7 ± 0.81 µM; in assay [2], 3.42 ± 0.33 µM.
